Data on 16 compounds can be found in US9040663B2, “Melanocortin receptor-specific peptides” (AstraZeneca AB, priority 2009, dated 2015).

Assay [1] has as its target T1, hMC4-R (Homo sapiens (Human), UniProt P32245). The assay is described as follows: Competitive inhibition binding assay using [I125]-NDP-α-MSH, hMC4-R. To be noted: membranes of HEK-293 cells expressing recombinant hMC4-R, read-out: MC4-R Ki. How it is done:
7.1 Competitive Inhibition Assay using [I^125]-NDP-α-MSH.
A competitive inhibition binding assay was performed for exemplified peptides according to the invention using membrane homogenates prepared from HEK-293 cells that express recombinant hMC4-R, hMC3-R, or hMC5-R, and from B-16 mouse melanoma cells (containing endogenous MC1-R). In some instances, HEK-293 cells that express recombinant hMC1-R were employed. Assays were performed in 96 well GF/B Millipore multiscreen filtration plates (MAFB NOB10) pre-coated with 0.5% bovine serum albumin (Fraction V). Membrane homogenates were incubated with 0.2 nM (for hMC4-R) 0.4 nM (for MC3-R and MC5-R) or 0.1 nM (for mouse B16 MC1-R or hMC1-R) [I^125]-NDP-α-MSH (Perkin Elmer) and increasing concentrations of test peptides of the present invention in buffer containing 25 mM HEPES buffer (pH 7.5) with 100 mM NaCl, 2 mM CaCl2, 2 mM MgCl2, 0.3 mM 1,10-phenanthroline, and 0.2% bovine serum albumin. After incubation for 60 minutes at 37° C., the assay mixture was filtered and the membranes washed three times with ice-cold buffer. Filters were dried and counted in a gamma counter for bound radioactivity. […] Maximal specific binding (100%) was defined as the difference in radioactivity (cpm) bound to cell membranes in the absence and presence of 1 μM NDP-α-MSH. […] Each assay was conducted in triplicate and the actual mean values are described, with results less than 0% reported as 0%. Ki values for test peptides of the present invention were determined using Graph-Pad Prism® curve-fitting software.

Assay [2] addresses T1, hMC4-R. The assay is described as follows: High and low density hMC4-R functional assay (cAMP, HEK293-T-REx-MC4-R cells). Type of assay: cell-based. Conditions: for Emax: NDP-α-MSH = 100%, read-out: Intrinsic Activity (%). How it is done: The cells were then dispensed into 96-well plates (BD 353916) in 198 μL (about 5×10^4) cells/well and incubated for 10 minutes at 37° C. The compound to be tested was diluted with DMSO to a final concentration of 1 mM. […] 120 μL of the 1 mM compound stock was pipetted in the second column on the plate. […] All assay samples were run in duplicate (i.e. each sample was in two low dox and two high dox plates, respectively). The plates were gently shaken and incubated for 15 minutes at 37° C.

Where [3] appears, read: 0.1 ng/mL Doxycycline (low density hMC4-R system).
Setting [4] is: 10 ng/mL Doxycycline (high density hMC4-R system).

The structures appear in SMILES notation. Read-outs that look alike come from different tables or passages of the source.

T1 sequence (P32245 whole entry): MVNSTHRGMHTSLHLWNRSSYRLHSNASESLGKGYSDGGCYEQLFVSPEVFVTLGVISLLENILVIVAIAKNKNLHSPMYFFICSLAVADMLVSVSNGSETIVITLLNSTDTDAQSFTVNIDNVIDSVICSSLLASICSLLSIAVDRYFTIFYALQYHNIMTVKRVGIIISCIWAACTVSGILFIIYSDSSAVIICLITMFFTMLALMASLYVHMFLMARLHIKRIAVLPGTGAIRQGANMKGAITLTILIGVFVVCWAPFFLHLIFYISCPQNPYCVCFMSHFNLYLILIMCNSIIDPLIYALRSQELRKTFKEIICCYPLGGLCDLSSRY

In the case of `CC(=O)N[C@@H](CCCNC(=N)N)C(=O)N[C@H]1CCC(=O)NCCC[C@@H](C(N)=O)NC(=O)[C@H](Cc2c[nH]c3ccccc23)NC(=O)[C@H](CCCNC(=N)N)NC(=O)[C@@H](Cc2cccc(C)c2)NC(=O)[C@H](CCN)NC1=O` [Example 19, Ac-Arg-cyclo(Glu-Dab-D-Phe(3-Me)-Arg-Trp-Orn)-NH2], the inhibition constant Ki (in general, a measure of affinity in units of concentration, obtained from inhibition or displacement) in assay [1] was found to be 400 pM. In assay [2] (setting [3]), the EC50 (as a rule, the midpoint of the concentration-response curve) stood at 420 pM and the Emax came to 35%. In assay [2] (setting [4]), a half-maximal response (EC50) required 220 pM and the Emax was found to be 97%.

In the case of `CC(=O)N[C@@H](CCCNC(=N)N)C(=O)N[C@H]1CCC(=O)NCCC[C@@H](C(N)=O)NC(=O)[C@H](Cc2c[nH]c3ccccc23)NC(=O)[C@H](CCCNC(=N)N)NC(=O)[C@@H](Cc2ccc(C(F)(F)F)cc2)NC(=O)[C@H](CCN)NC1=O` [Example 20, Ac-Arg-cyclo(Glu-Dab-D-Phe(4-CF3)-Arg-Trp-Orn)-NH2], in assay [1], the inhibitory constant (Ki) was found to be 60 pM. The Emax in assay [2] (setting [3]) was 0.5%. Moreover, in assay [2] (setting [4]), it took 750 pM to reach a half-maximal effect (EC50) and the Emax stood at 53%.

As to `CC(=O)N[C@@H](CCCNC(=N)N)C(=O)N[C@H]1CCC(=O)NCCC[C@@H](C(N)=O)NC(=O)[C@H](Cc2c[nH]c3ccccc23)NC(=O)[C@H](CCCNC(=N)N)NC(=O)[C@@H](Cc2ccc(C)cc2C)NC(=O)[C@H](CCN)NC1=O` [Example 21, Ac-Arg-cyclo(Glu-Dab-D-Phe(2,4-diMe)-Arg-Trp-Orn)-NH2], in assay [1], the Ki was found to be 85 pM. Besides, in assay [2] (setting [3]), the Emax turned out to be 8%. In assay [2] (setting [4]), the EC50 was 500 pM and the Emax was 97%.

For `CC(=O)N[C@@H](CCCNC(=N)N)C(=O)N[C@H]1CCC(=O)NCCC[C@@H](C(N)=O)NC(=O)[C@H](Cc2c[nH]c3ccccc23)NC(=O)[C@H](CCCNC(=N)N)NC(=O)[C@@H](Cc2ccccc2[N+](=O)[O-])NC(=O)[C@H](CCN)NC1=O` [Example 22, Ac-Arg-cyclo(Glu-Dab-D-Phe(2-NO2)-Arg-Trp-Orn)-NH2], the Ki in assay [1] stood at 11000 pM. For the same compound, in assay [2] (setting [3]), the concentration for a half-maximal effect (EC50) came to 3000 pM and the Emax came out at 78%. Moreover, in assay [2] (setting [4]), the concentration for a half-maximal effect (EC50) was determined as 200 pM and the Emax came out at 93%.

Regarding `CC(=O)N[C@@H](CCCNC(=N)N)C(=O)N[C@H]1CCC(=O)NCCC[C@@H](C(N)=O)NC(=O)[C@H](Cc2c[nH]c3ccccc23)NC(=O)[C@H](CCCNC(=N)N)NC(=O)[C@@H](Cc2cccc([N+](=O)[O-])c2)NC(=O)[C@H](CCN)NC1=O` [Example 23, Ac-Arg-cyclo(Glu-Dab-D-Phe(3-NO2)-Arg-Trp-Orn)-NH2], the Ki in assay [1] was 700 pM. Besides, in assay [2] (setting [3]), the concentration for a half-maximal effect (EC50) was 2000 pM and the Emax worked out at 17%. Moreover, in assay [2] (setting [4]), the EC50 was 550 pM and the Emax was 95%.

As for `CC(=O)N[C@@H](CCCNC(=N)N)C(=O)N[C@H]1CCC(=O)NCCC[C@@H](C(N)=O)NC(=O)[C@H](Cc2c[nH]c3ccccc23)NC(=O)[C@H](CCCNC(=N)N)NC(=O)[C@@H](Cc2ccc([N+](=O)[O-])cc2)NC(=O)[C@H](CCN)NC1=O` [Example 24, Ac-Arg-cyclo(Glu-Dab-D-Phe(4-NO2)-Arg-Trp-Orn)-NH2], in assay [1], the Ki came out at 450 pM. For the same compound, in assay [2] (setting [3]), the midpoint of the response, the EC50, lay at 700 pM and the Emax worked out at 15%. Besides, in assay [2] (setting [4]), the EC50 was 450 pM and the Emax came out at 99%.

As to `COc1ccc(C[C@H]2NC(=O)[C@H](CCN)NC(=O)[C@@H](NC(=O)[C@H](CCCNC(=N)N)NC(C)=O)CCC(=O)NCCC[C@@H](C(N)=O)NC(=O)[C@H](Cc3c[nH]c4ccccc34)NC(=O)[C@H](CCCNC(=N)N)NC2=O)cc1OC` [Example 25, Ac-Arg-cyclo(Glu-Dab-D-Phe(3,4-diOMe)-Arg-Trp-Orn)-NH2], in assay [1], the Ki is 35000 pM. For the same compound, the EC50 in assay [2] (setting [3]) was found to be 75000 pM; in assay [2] (setting [4]), 2000 pM. The Emax in assay [2] (setting [3]) was 23%; in assay [2] (setting [4]), 94%.

For the compound `CC(=O)N[C@@H](CCCNC(=N)N)C(=O)N[C@H]1CCC(=O)NCCC[C@@H](C(N)=O)NC(=O)[C@H](Cc2c[nH]c3ccccc23)NC(=O)[C@H](CCCNC(=N)N)NC(=O)[C@@H](Cc2ccc(F)c(F)c2)NC(=O)[C@H](CCN)NC1=O` [Example 26, Ac-Arg-cyclo(Glu-Dab-D-Phe(3,4-diF)-Arg-Trp-Orn)-NH2], the Ki in assay [1] came to 300 pM. In assay [2] (setting [3]), the EC50 turned out to be 125 pM and the Emax amounted to 74%. In addition, in assay [2] (setting [4]), the concentration giving a half-maximal response (EC50) stood at 120 pM and the Emax stood at 90%.

Consider `CC(=O)N[C@@H](CCCNC(=N)N)C(=O)N[C@H]1CCC(=O)NCCC[C@@H](C(N)=O)NC(=O)[C@H](Cc2c[nH]c3ccccc23)NC(=O)[C@H](CCCNC(=N)N)NC(=O)[C@@H](Cc2cc(F)c(F)c(F)c2)NC(=O)[C@H](CCN)NC1=O` [Example 27, Ac-Arg-cyclo(Glu-Dab-D-Phe(3,4,5-triF)-Arg-Trp-Orn)-NH2], for which the Ki in assay [1] was found to be 667 pM. Further, the values for the EC50 in assay [2] (setting [3]) and in assay [2] (setting [4]) were 700 pM and 330 pM, respectively. Further, the Emax in assay [2] (setting [3]) turned out to be 37%; in assay [2] (setting [4]), 97%.

As to `CC(=O)N[C@@H](CCCNC(=N)N)C(=O)N[C@H]1CCC(=O)NCCC[C@@H](C(N)=O)NC(=O)[C@H](Cc2c[nH]c3ccccc23)NC(=O)[C@H](CCCNC(=N)N)NC(=O)[C@@H](Cc2ccc(N)cc2)NC(=O)[C@H](CCN)NC1=O` [Example 28, Ac-Arg-cyclo(Glu-Dab-D-Phe(4-NH2)-Arg-Trp-Orn)-NH2], the inhibition constant Ki in assay [1] was found to be 48000 pM. In assay [2] (setting [3]), a half-maximal effect (EC50) was put at 29000 pM and the Emax came to 35%. For the same compound, in assay [2] (setting [4]), the midpoint of the response, the EC50, lay at 600 pM and the Emax was 94%.

Regarding `CC(=O)N[C@@H](CCCNC(=N)N)C(=O)N[C@H]1CCC(=O)NCCC[C@@H](C(N)=O)NC(=O)[C@H](Cc2c[nH]c3ccccc23)NC(=O)[C@H](CCCNC(=N)N)NC(=O)[C@@H](Cc2ccc(-c3ccccc3)cc2)NC(=O)[C@H](CCN)NC1=O` [Example 29, Ac-Arg-cyclo(Glu-Dab-D-Phe(4-Ph)-Arg-Trp-Orn)-NH2], the Ki in assay [1] amounted to 500 pM. In addition, in assay [2] (setting [3]), a half-maximal effect (EC50) was put at 3000 pM and the Emax was found to be 14%. In addition, in assay [2] (setting [4]), the response was half-maximal at 800 pM (EC50) and the Emax is 100%.

As to `CC(=O)N[C@@H](CCCNC(=N)N)C(=O)N[C@H]1CCC(=O)NCCC[C@@H](C(N)=O)NC(=O)[C@H](Cc2c[nH]c3ccccc23)NC(=O)[C@H](CCCNC(=N)N)NC(=O)[C@@H](Cc2ccc(C(C)(C)C)cc2)NC(=O)[C@H](CCN)NC1=O` [Example 30, Ac-Arg-cyclo(Glu-Dab-D-Phe(4-tBu)-Arg-Trp-Orn)-NH2], in assay [1], the inhibition constant Ki was determined as 4000 pM. Moreover, the Emax in assay [2] (setting [3]) came to 2%. Further, in assay [2] (setting [4]), the EC50 was 25000 pM and the Emax came to 9%.

As for `CC(=O)N[C@@H](CCCNC(=N)N)C(=O)N[C@H]1CCC(=O)NCCC[C@@H](C(N)=O)NC(=O)[C@H](Cc2c[nH]c3ccccc23)NC(=O)[C@H](CCCNC(=N)N)NC(=O)[C@@H](Cc2cccc(Cl)c2)NC(=O)[C@H](CO)NC1=O` [Example 35, Ac-Arg-cyclo(Glu-Ser-D-Phe(3-Cl)-Arg-Trp-Orn)-NH2], the inhibitory constant (Ki) in assay [1] stood at 10000 pM. The Emax came to 6% in assay [2] (setting [3]) and 84% in assay [2] (setting [4]). Further, the concentration for a half-maximal effect (EC50) in assay [2] (setting [4]) was determined as 1000 pM.

As for `CC(=O)N[C@@H](CCCNC(=N)N)C(=O)N[C@H]1CCC(=O)NCCC[C@@H](C(N)=O)NC(=O)[C@H](Cc2c[nH]c3ccccc23)NC(=O)[C@H](CCCNC(=N)N)NC(=O)[C@@H](Cc2ccc(C#N)cc2)NC(=O)[C@H](C(C)C)NC1=O` [Example 42, Ac-Arg-cyclo(Glu-Val-D-Phe(4-CN)-Arg-Trp-Orn)-NH2], the Ki in assay [1] was 6000 pM. The Emax in assay [2] (setting [3]) came to 9%. Also, in assay [2] (setting [4]), the EC50 came out at 500 pM and the Emax came out at 84%.

For `CC(=O)N[C@H](CCCNC(=N)N)C(=O)N[C@H]1CCCNC(=O)CC[C@@H](C(N)=O)NC(=O)[C@H](Cc2c[nH]c3ccccc23)NC(=O)[C@H](CCCNC(=N)N)NC(=O)[C@@H](Cc2ccccc2Cl)NC(=O)[C@H](Cc2c[nH]cn2)NC1=O` [Example 50, Ac-D-Arg-cyclo(Orn-His-D-Phe(2-Cl)-Arg-Trp-Glu)-NH2], the Ki in assay [1] is 1000 pM. In assay [2] (setting [3]), the response was half-maximal at 210 pM (EC50) and the Emax came out at 94%. In addition, in assay [2] (setting [4]), the EC50 came out at 85 pM and the Emax came out at 94%.

Regarding `CC(=O)N[C@H](CCCNC(=N)N)C(=O)N[C@H]1CCCNC(=O)CC[C@@H](C(N)=O)NC(=O)[C@H](Cc2c[nH]c3ccccc23)NC(=O)[C@H](CCCNC(=N)N)NC(=O)[C@@H](Cc2ccc(F)c(F)c2)NC(=O)[C@H](Cc2c[nH]cn2)NC1=O` [Example 54, Ac-D-Arg-cyclo(Orn-His-D-Phe(3,4-diF)-Arg-Trp-Glu)-NH2], in assay [1], the inhibitory constant (Ki) worked out at 250 pM. Further, in assay [2] (setting [3]), the EC50 came out at 75 pM and the Emax came out at 56%. Moreover, in assay [2] (setting [4]), the EC50 turned out to be 75 pM and the Emax amounted to 92%.
